Data on 18 molecules can be found in US8906904B2, “Alkoxy pyrazoles as soluble guanylate cyclase activators” (Boehringer Ingelheim International GmbH, priority 2012, dated 2014).

The structures appear in SMILES notation. Converted amounts (≈) assume the structure as drawn.

The first data set in a line: Assessment of solubility (McIlvaine buffers, 24 h shake, UPLC-UV). It is filed as physicochemical. Conditions: pH 2.2, aqueous buffer, kinetic from dmso stock. Put shortly:
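Compounds from 10 mM DMSO stocks were shaken for 24 h at room temperature in McIlvaine buffers at pH 2.2, 4.5 and 6.8 (2.5% v/v DMSO final), then filtered. Filtrates were quantified by UPLC-UV at 254 nm against a 50:50 acetonitrile/water reference assumed fully dissolved, as a single determination.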
Molecule `CCOc1c(C(=O)O)cnn1-c1cccc(-c2cccc(C)c2OCc2cc(C)c3c(c2)CCN([C@@H]2CCCOC2)C3)n1` [Compound 195] registered a solubility at 24 h of 110 µg/mL (≈ 189 µM).

As for `CCOc1c(C(=O)O)cnn1-c1cccc(-c2cccc(C)c2OCc2ccc3c(c2C)CCN(C(C)COC)CC3)n1` (stereo not drawn) [Compound 196], the solubility at 24 h stood at 89 µg/mL (≈ 152 µM).

Molecule `CCOc1c(C(=O)O)cnn1-c1cccc(-c2cccc(C)c2OCc2cc(C)c3c(c2)CCN([C@H]2CCCOC2)C3)n1` [Compound 197] yielded a solubility at 24 h of 110 µg/mL (≈ 189 µM).

`COc1c(C(=O)O)cnn1-c1cccc(-c2cccc(C)c2OCc2ccc3c(c2C)CCN(C[C@@H]2CCCCO2)C3)n1` [Compound 198] yielded a solubility at 24 h of 120 µg/mL (≈ 206 µM).

With `COc1c(C(=O)O)cnn1-c1cccc(-c2cccc(C)c2OCc2ccc3c(c2C)CCN(C[C@H]2CCCCO2)C3)n1` [Compound 199], the concentration in solution (solubility at 24 h) was 120 µg/mL (≈ 206 µM).

In turn, `CCOc1c(C(=O)O)cnn1-c1cccc(-c2cccc(C)c2OCc2cc(C)c3c(c2)CCN(CC2(C)COC2)C3)n1` [Compound 200] came in with a solubility at 24 h of 100 µg/mL (≈ 172 µM).

`COc1c(C(=O)O)cnn1-c1cccc(-c2cccc(C)c2OCc2cc(F)c3c(c2)CCN(C2CCOCC2)C3)n1` [Compound 201] showed a solubility at 24 h of 87 µg/mL (≈ 152 µM).

`COc1c(C(=O)O)cnn1-c1cccc(-c2cccc(C)c2OCc2ccc3c(c2C)CCN(C[C@H]2COCCO2)CC3)n1` [Compound 203] had a solubility at 24 h of 81 µg/mL (≈ 135 µM).

Consider `COc1c(C(=O)O)cnn1-c1cccc(-c2cccc(C)c2OCc2ccc3c(c2C)CCN(C[C@@H]2COCCO2)CC3)n1` [Compound 204], for which the concentration in solution (solubility at 24 h) was 82 µg/mL (≈ 137 µM).

On to `COc1c(C(=O)O)cnn1-c1cccc(-c2cccc(C)c2OCc2ccc3c(c2C)CCN([C@@H]2CCOC2)CC3)n1` [Compound 207], for which the solubility at 24 h was 82 µg/mL (≈ 144 µM).

In the case of `CCOc1c(C(=O)O)cnn1-c1cccc(-c2cccc(C)c2OCc2ccc3c(c2C)CCN(CC2(F)COC2)C3)n1` [Compound 208], the solubility at 24 h amounted to 82 µg/mL (≈ 140 µM).

`COc1c(C(=O)O)cnn1-c1cccc(-c2ccccc2OCc2ccc3c(c2)CCN(C2CCOCC2)C3)n1` [Compound 209] came in with a solubility at 24 h of 110 µg/mL (≈ 203 µM).

On to `CCOc1c(C(=O)O)cnn1-c1cccc(-c2cccc(C)c2OCc2cc(C)c3c(c2)CCN(C(C)COC)C3)n1` (stereo not drawn) [Compound 210], for which the solubility at 24 h was found to be 110 µg/mL (≈ 193 µM).

In turn, `CCOc1c(C(=O)O)cnn1-c1cccc(-c2cccc(C)c2OCc2ccc3c(c2C)CCN(C[C@@H]2COCCO2)CC3)n1` [Compound 211] displayed a solubility at 24 h of 95 µg/mL (≈ 155 µM).

For `CCOc1c(C(=O)O)cnn1-c1cccc(-c2cccc(C)c2OCc2ccc3c(c2C)CCN(C[C@H]2COCCO2)CC3)n1` [Compound 212], the concentration in solution (solubility at 24 h) was 92 µg/mL (≈ 150 µM).

The molecule `CCOc1c(C(=O)O)cnn1-c1cccc(-c2cccc(C)c2OCc2ccc3c(c2)CCN(C2COC2)CC3)n1` [Compound 213] displayed a solubility at 24 h of 85 µg/mL (≈ 153 µM).

The molecule `CCOc1c(C(=O)O)cnn1-c1cccc(-c2cccc(C)c2OCc2ccc3c(c2C)CCN(C[C@H]2CCCCO2)CC3)n1` [Compound 214] came in with a solubility at 24 h of 81 µg/mL (≈ 133 µM).

In turn, `CCOc1c(C(=O)O)cnn1-c1cccc(-c2cccc(C)c2OCc2ccc3c(c2C)CCN(C[C@@H]2CCCCO2)CC3)n1` [Compound 215] gave a solubility at 24 h of 86 µg/mL (≈ 141 µM).

Still in this data set, the particulars now being: pH 4.5, aqueous buffer, kinetic from dmso stock.
For `CCOc1c(C(=O)O)cnn1-c1cccc(-c2cccc(C)c2OCc2cc(C)c3c(c2)CCN([C@@H]2CCCOC2)C3)n1` [Compound 195], the concentration in solution (solubility at 24 h) was 83 µg/mL (≈ 142 µM).

In the case of `CCOc1c(C(=O)O)cnn1-c1cccc(-c2cccc(C)c2OCc2ccc3c(c2C)CCN(C(C)COC)CC3)n1` (stereo not drawn) [Compound 196], the solubility at 24 h amounted to 77 µg/mL (≈ 132 µM).

For the molecule `CCOc1c(C(=O)O)cnn1-c1cccc(-c2cccc(C)c2OCc2cc(C)c3c(c2)CCN([C@H]2CCCOC2)C3)n1` [Compound 197], the solubility at 24 h worked out at 83 µg/mL (≈ 142 µM).

In turn, `COc1c(C(=O)O)cnn1-c1cccc(-c2cccc(C)c2OCc2ccc3c(c2C)CCN(C[C@@H]2CCCCO2)C3)n1` [Compound 198] yielded a solubility at 24 h of 100 µg/mL (≈ 172 µM).

The molecule `COc1c(C(=O)O)cnn1-c1cccc(-c2cccc(C)c2OCc2ccc3c(c2C)CCN(C[C@H]2CCCCO2)C3)n1` [Compound 199] came in with a solubility at 24 h of 96 µg/mL (≈ 165 µM).

Molecule `CCOc1c(C(=O)O)cnn1-c1cccc(-c2cccc(C)c2OCc2cc(C)c3c(c2)CCN(CC2(C)COC2)C3)n1` [Compound 200] had a solubility at 24 h of 73 µg/mL (≈ 125 µM).

With `COc1c(C(=O)O)cnn1-c1cccc(-c2cccc(C)c2OCc2cc(F)c3c(c2)CCN(C2CCOCC2)C3)n1` [Compound 201], the concentration in solution (solubility at 24 h) was 68 µg/mL (≈ 119 µM).

Molecule `COc1c(C(=O)O)cnn1-c1cccc(-c2cccc(C)c2OCc2ccc3c(c2C)CCN(C[C@H]2COCCO2)CC3)n1` [Compound 203] came in with a solubility at 24 h of 70 µg/mL (≈ 117 µM).

Take `COc1c(C(=O)O)cnn1-c1cccc(-c2cccc(C)c2OCc2ccc3c(c2C)CCN(C[C@@H]2COCCO2)CC3)n1` [Compound 204]: the concentration in solution (solubility at 24 h) came to 72 µg/mL (≈ 120 µM).

Molecule `COc1c(C(=O)O)cnn1-c1cccc(-c2cccc(C)c2OCc2ccc3c(c2C)CCN([C@@H]2CCOC2)CC3)n1` [Compound 207] registered a solubility at 24 h of 68 µg/mL (≈ 120 µM).

Take `CCOc1c(C(=O)O)cnn1-c1cccc(-c2cccc(C)c2OCc2ccc3c(c2C)CCN(CC2(F)COC2)C3)n1` [Compound 208]: the concentration in solution (solubility at 24 h) came to 47 µg/mL (≈ 80.1 µM).

The molecule `COc1c(C(=O)O)cnn1-c1cccc(-c2ccccc2OCc2ccc3c(c2)CCN(C2CCOCC2)C3)n1` [Compound 209] gave a solubility at 24 h of 81 µg/mL (≈ 150 µM).

As for `CCOc1c(C(=O)O)cnn1-c1cccc(-c2cccc(C)c2OCc2cc(C)c3c(c2)CCN(C(C)COC)C3)n1` (stereo not drawn) [Compound 210], the concentration in solution (solubility at 24 h) came to 87 µg/mL (≈ 152 µM).

Regarding `CCOc1c(C(=O)O)cnn1-c1cccc(-c2cccc(C)c2OCc2ccc3c(c2C)CCN(C[C@@H]2COCCO2)CC3)n1` [Compound 211], the solubility at 24 h stood at 82 µg/mL (≈ 134 µM).

Turning to `CCOc1c(C(=O)O)cnn1-c1cccc(-c2cccc(C)c2OCc2ccc3c(c2C)CCN(C[C@H]2COCCO2)CC3)n1` [Compound 212], the solubility at 24 h came out at 79 µg/mL (≈ 129 µM).

Molecule `CCOc1c(C(=O)O)cnn1-c1cccc(-c2cccc(C)c2OCc2ccc3c(c2)CCN(C2COC2)CC3)n1` [Compound 213] had a solubility at 24 h of 66 µg/mL (≈ 119 µM).

In the case of `CCOc1c(C(=O)O)cnn1-c1cccc(-c2cccc(C)c2OCc2ccc3c(c2C)CCN(C[C@H]2CCCCO2)CC3)n1` [Compound 214], the solubility at 24 h was 64 µg/mL (≈ 105 µM).

`CCOc1c(C(=O)O)cnn1-c1cccc(-c2cccc(C)c2OCc2ccc3c(c2C)CCN(C[C@@H]2CCCCO2)CC3)n1` [Compound 215] gave a solubility at 24 h of 70 µg/mL (≈ 115 µM).

Still in this data set, the particulars now being: pH 6.8, aqueous buffer, kinetic from dmso stock.
As for `CCOc1c(C(=O)O)cnn1-c1cccc(-c2cccc(C)c2OCc2cc(C)c3c(c2)CCN([C@@H]2CCCOC2)C3)n1` [Compound 195], the concentration in solution (solubility at 24 h) came to 80 µg/mL (≈ 137 µM).

`CCOc1c(C(=O)O)cnn1-c1cccc(-c2cccc(C)c2OCc2ccc3c(c2C)CCN(C(C)COC)CC3)n1` (stereo not drawn) [Compound 196]: the solubility at 24 h came out at 85 µg/mL (≈ 145 µM).

Regarding `CCOc1c(C(=O)O)cnn1-c1cccc(-c2cccc(C)c2OCc2cc(C)c3c(c2)CCN([C@H]2CCCOC2)C3)n1` [Compound 197], the concentration in solution (solubility at 24 h) was 79 µg/mL (≈ 136 µM).

`COc1c(C(=O)O)cnn1-c1cccc(-c2cccc(C)c2OCc2ccc3c(c2C)CCN(C[C@@H]2CCCCO2)C3)n1` [Compound 198] had a solubility at 24 h of 93 µg/mL (≈ 160 µM).

`COc1c(C(=O)O)cnn1-c1cccc(-c2cccc(C)c2OCc2ccc3c(c2C)CCN(C[C@H]2CCCCO2)C3)n1` [Compound 199]: the solubility at 24 h is 92 µg/mL (≈ 158 µM).

Take `CCOc1c(C(=O)O)cnn1-c1cccc(-c2cccc(C)c2OCc2cc(C)c3c(c2)CCN(CC2(C)COC2)C3)n1` [Compound 200]: the solubility at 24 h worked out at 73 µg/mL (≈ 125 µM).

Regarding `COc1c(C(=O)O)cnn1-c1cccc(-c2cccc(C)c2OCc2cc(F)c3c(c2)CCN(C2CCOCC2)C3)n1` [Compound 201], the solubility at 24 h came out at 66 µg/mL (≈ 115 µM).

The molecule `COc1c(C(=O)O)cnn1-c1cccc(-c2cccc(C)c2OCc2ccc3c(c2C)CCN(C[C@H]2COCCO2)CC3)n1` [Compound 203] had a solubility at 24 h of 72 µg/mL (≈ 120 µM).

For `COc1c(C(=O)O)cnn1-c1cccc(-c2cccc(C)c2OCc2ccc3c(c2C)CCN(C[C@@H]2COCCO2)CC3)n1` [Compound 204], the concentration in solution (solubility at 24 h) was 73 µg/mL (≈ 122 µM).

`COc1c(C(=O)O)cnn1-c1cccc(-c2cccc(C)c2OCc2ccc3c(c2C)CCN([C@@H]2CCOC2)CC3)n1` [Compound 207] registered a solubility at 24 h of 73 µg/mL (≈ 128 µM).

Regarding `CCOc1c(C(=O)O)cnn1-c1cccc(-c2cccc(C)c2OCc2ccc3c(c2C)CCN(CC2(F)COC2)C3)n1` [Compound 208], the concentration in solution (solubility at 24 h) came to 57 µg/mL (≈ 97.2 µM).

Turning to `COc1c(C(=O)O)cnn1-c1cccc(-c2ccccc2OCc2ccc3c(c2)CCN(C2CCOCC2)C3)n1` [Compound 209], the concentration in solution (solubility at 24 h) came to 84 µg/mL (≈ 155 µM).

Molecule `CCOc1c(C(=O)O)cnn1-c1cccc(-c2cccc(C)c2OCc2cc(C)c3c(c2)CCN(C(C)COC)C3)n1` (stereo not drawn) [Compound 210] had a solubility at 24 h of 87 µg/mL (≈ 152 µM).

The molecule `CCOc1c(C(=O)O)cnn1-c1cccc(-c2cccc(C)c2OCc2ccc3c(c2C)CCN(C[C@@H]2COCCO2)CC3)n1` [Compound 211] had a solubility at 24 h of 78 µg/mL (≈ 127 µM).

Molecule `CCOc1c(C(=O)O)cnn1-c1cccc(-c2cccc(C)c2OCc2ccc3c(c2C)CCN(C[C@H]2COCCO2)CC3)n1` [Compound 212] showed a solubility at 24 h of 75 µg/mL (≈ 122 µM).

Take `CCOc1c(C(=O)O)cnn1-c1cccc(-c2cccc(C)c2OCc2ccc3c(c2)CCN(C2COC2)CC3)n1` [Compound 213]: the solubility at 24 h amounted to 72 µg/mL (≈ 130 µM).

As for `CCOc1c(C(=O)O)cnn1-c1cccc(-c2cccc(C)c2OCc2ccc3c(c2C)CCN(C[C@H]2CCCCO2)CC3)n1` [Compound 214], the solubility at 24 h was 69 µg/mL (≈ 113 µM).

With `CCOc1c(C(=O)O)cnn1-c1cccc(-c2cccc(C)c2OCc2ccc3c(c2C)CCN(C[C@@H]2CCCCO2)CC3)n1` [Compound 215], the solubility at 24 h worked out at 76 µg/mL (≈ 124 µM).
